Reference: patent publication US8378117B2 (priority 2005, dated 2013)
Like-named read-outs stand apart in the source and are kept apart here.

What was measured:
CB1 receptor = target: T1, CB1 receptor (Homo sapiens, UniProt P21554); assay: Binding assay for CB1 agonists or inverse agonists (SK-N-MC membranes, [3H]-CP-55,940)
T1 construct: expressed in transfected cells
How it was run: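 Membranes from SK-N-MC cells stably expressing human CB1 incubated with compound and [3H]-CP-55,940 ([…]) for 90 min at 30° C in Tris-HCl pH 7.5, MgCl2, EDTA, fatty-acid-free BSA. Non-specific binding defined with 10 uM WIN 55,212; filtration, scintillation count; IC50 by linear regression.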

CB2 receptor = target: T2, CB2 receptor (Homo sapiens, UniProt P34972); assay: Binding assay for CB2 agonists or inverse agonists (SK-N-MC membranes, [3H]-CP-55,940)
T2 construct: expressed in transfected cells
T2 sequence (P34972 whole entry): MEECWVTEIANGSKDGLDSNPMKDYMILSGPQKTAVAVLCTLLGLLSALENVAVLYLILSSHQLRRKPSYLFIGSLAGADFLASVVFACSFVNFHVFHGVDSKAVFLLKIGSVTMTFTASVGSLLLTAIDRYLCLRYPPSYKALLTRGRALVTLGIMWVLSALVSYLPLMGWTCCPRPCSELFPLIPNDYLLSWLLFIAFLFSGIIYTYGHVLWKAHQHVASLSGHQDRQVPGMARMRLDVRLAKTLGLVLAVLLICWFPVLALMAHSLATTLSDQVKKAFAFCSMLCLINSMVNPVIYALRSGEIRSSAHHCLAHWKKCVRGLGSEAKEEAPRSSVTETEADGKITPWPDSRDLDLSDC
How it was run: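 Membranes from SK-N-MC cells stably expressing human CB2 were incubated with radioligand and test compounds for 90 min at 30 °C in Tris-HCl buffer, pH 7.5, with MgCl2, EDTA and fatty-acid-free BSA. Filter-bound radioactivity was counted; IC50 was derived by linear regression of percent inhibition.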

[1] = read-out: CB1 receptor binding percent inhibition, test concentration 0.2 μM (footnote 2)
[2] = test concentration 0.2 μM (footnote 2), read-out: CB2 receptor binding percent inhibition
[3] = read-out: CB2 receptor binding percent inhibition, test concentration 0.2 μM (footnote 2)

T1 sequence (P21554 whole entry): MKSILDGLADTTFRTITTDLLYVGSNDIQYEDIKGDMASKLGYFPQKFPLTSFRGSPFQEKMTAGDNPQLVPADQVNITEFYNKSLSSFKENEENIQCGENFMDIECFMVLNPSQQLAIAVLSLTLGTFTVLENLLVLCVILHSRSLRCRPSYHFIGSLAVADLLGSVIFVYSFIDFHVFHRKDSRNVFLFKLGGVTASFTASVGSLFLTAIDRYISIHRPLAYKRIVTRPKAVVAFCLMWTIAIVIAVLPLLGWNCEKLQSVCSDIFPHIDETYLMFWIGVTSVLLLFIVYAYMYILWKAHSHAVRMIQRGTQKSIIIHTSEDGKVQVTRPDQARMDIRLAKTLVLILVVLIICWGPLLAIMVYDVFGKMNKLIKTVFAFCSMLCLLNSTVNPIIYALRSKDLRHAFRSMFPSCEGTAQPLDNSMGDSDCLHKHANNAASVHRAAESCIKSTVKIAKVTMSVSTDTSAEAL

SMILES	inhibition at 0.2 µM (CB1 receptor; [1])	inhibition at 0.2 µM (CB2 receptor; [2])	further results
O=C(N[C@@H](CCl)c1ccccc1)c1nn(-c2nccc(C(F)(F)F)n2)c2c1CCCCC2Cc1cccc(Cl)c1 (stereo partly drawn) [Cpd 178, 8-(3-chloro-benzyl)-1-(4-trifluoromethyl-pyrimidin-2-yl)-1,4,5,6,7,8-hexahydro-cycloheptapyrazole-3-carboxylic acid [(1R)-2-chloro-1-phenyl-ethyl]-amide]	29%	29%	
O=C(N[C@H](CCl)c1ccccc1)c1nn(-c2nccc(C(F)(F)F)n2)c2c1CCCCC2Cc1cccc(Cl)c1 (stereo partly drawn) [Cpd 179, 8-(3-chloro-benzyl)-1-(4-trifluoromethyl-pyrimidin-2-yl)-1,4,5,6,7,8-hexahydro-cycloheptapyrazole-3-carboxylic acid [(1S)-2-chloro-1-phenyl-ethyl]-amide]	0%	29%	
C[C@@H](NC(=O)c1nn(-c2ccncc2)c2c1CCCC/C2=C\c1ccc(Cl)cc1)C1CCCCC1 [Cpd 180, (8E)-8-(4-chloro-benzylidene)-1-pyridin-4-yl-1,4,5,6,7,8-hexahydro-cycloheptapyrazole-3-carboxylic acid [(1R)-1-cyclohexyl-ethyl]-amide]	40%	86%	
C[C@H](NC(=O)c1nn(-c2ccncc2)c2c1CCCC/C2=C\c1ccc(Cl)cc1)C1CCCCC1 [Cpd 181, (8E)-8-(4-chloro-benzylidene)-1-pyridin-4-yl-1,4,5,6,7,8-hexahydro-cycloheptapyrazole-3-carboxylic acid [(1S)-1-cyclohexyl-ethyl]-amide]	32%	57%	
O=C(NN1CCCCC1)c1nn(-c2ccncc2)c2c1CCCC/C2=C\c1ccc(Cl)cc1 [Cpd 182, (8E)-8-(4-chloro-benzylidene)-1-pyridin-4-yl-1,4,5,6,7,8-hexahydro-cycloheptapyrazole-3-carboxylic acid piperidin-1-ylamide]	21%	31%	
O=C(NN1CCOCC1)c1nn(-c2ccncc2)c2c1CCCC/C2=C\c1ccc(Cl)cc1 [Cpd 183, (8E)-8-(4-chloro-benzylidene)-1-pyridin-4-yl-1,4,5,6,7,8-hexahydro-cycloheptapyrazole-3-carboxylic acid morpholin-4-ylamide]	0%	14%	
O=C(N[C@@H](CO)Cc1ccccc1)c1nn(-c2nccc(C(F)(F)F)n2)c2c1CCCCC2Cc1cccc(Cl)c1 (stereo partly drawn) [Cpd 186, 8-(3-chloro-benzyl)-1-(4-trifluoromethyl-pyrimidin-2-yl)-1,4,5,6,7,8-hexahydro-cycloheptapyrazole-3-carboxylic acid [(1R)-1-benzyl-2-hydroxy-ethyl]-amide]	12%	58%	
O=C(N[C@@H](CCl)Cc1ccccc1)c1nn(-c2nccc(C(F)(F)F)n2)c2c1CCCCC2Cc1cccc(Cl)c1 (stereo partly drawn) [Cpd 187, 8-(3-chloro-benzyl)-1-(4-trifluoromethyl-pyrimidin-2-yl)-1,4,5,6,7,8-hexahydro-cycloheptapyrazole-3-carboxylic acid [(1R)-1-benzyl-2-chloro-ethyl]-amide]	12%	23%	
C[C@H](NC(=O)c1nn(-c2ccccc2Cl)c2c1CCCC/C2=C\c1ccc(Cl)cc1)c1ccccc1 [Cpd 191, (8E)-8-(4-chloro-benzylidene)-1-(2-chloro-phenyl)-1,4,5,6,7,8-hexahydro-cycloheptapyrazole-3-carboxylic acid [(1S)-1-phenyl-ethyl]-amide]	47%		inhibition at 0.2 µM (CB2 receptor; [3]): 7%
C[C@H](NC(=O)c1nn(-c2ccccc2Cl)c2c1CCCC/C2=C\c1ccc(Cl)cc1)C1CCCCC1 [Cpd 192, (8E)-8-(4-chloro-benzylidene)-1-(2-chloro-phenyl)-1,4,5,6,7,8-hexahydro-cycloheptapyrazole-3-carboxylic acid [(1S)-1-cyclohexyl-ethyl]-amide]	45%		inhibition at 0.2 µM (CB2 receptor; [3]): 7%
O=C(NN1CCCCC1)c1nn(-c2ccccc2Cl)c2c1CCCC/C2=C\c1ccc(Cl)cc1 [Cpd 193, (8E)-8-(4-chloro-benzylidene)-1-(2-chloro-phenyl)-1,4,5,6,7,8-hexahydro-cycloheptapyrazole-3-carboxylic acid piperidin-1-ylamide]	43%	16%	
O=C(NN1CCOCC1)c1nn(-c2ccccc2Cl)c2c1CCCC/C2=C\c1ccc(Cl)cc1 [Cpd 194, (8E)-8-(4-chloro-benzylidene)-1-(2-chloro-phenyl)-1,4,5,6,7,8-hexahydro-cycloheptapyrazole-3-carboxylic acid morpholin-4-ylamide]	19%	10%	
C[C@@H](NC(=O)c1nn(-c2cc(Cl)ccc2Cl)c2c1CCCC/C2=C\c1ccc(Cl)cc1)c1ccccc1 [Cpd 195, (8E)-8-(4-chloro-benzylidene)-1-(2,5-dichloro-phenyl)-1,4,5,6,7,8-hexahydro-cycloheptapyrazole-3-carboxylic acid [(1R)-1-phenyl-ethyl]-amide]			inhibition at 0.2 µM (CB1 receptor; read-out: CB1 receptor binding percent inhibition): 63%; inhibition at 0.2 µM (CB2 receptor; [3]): 37%
C[C@@H](NC(=O)c1nn(-c2cc(Cl)ccc2Cl)c2c1CCCC/C2=C\c1ccc(Cl)cc1)C1CCCCC1 [Cpd 196, (8E)-8-(4-chloro-benzylidene)-1-(2,5-dichloro-phenyl)-1,4,5,6,7,8-hexahydro-cycloheptapyrazole-3-carboxylic acid [(1R)-1-cyclohexyl-ethyl]-amide]	67%		inhibition at 0.2 µM (CB2 receptor; [3]): 49%
O=C(NN1CCCCC1)c1nn(-c2cc(Cl)ccc2Cl)c2c1CCCC/C2=C\c1ccc(Cl)cc1 [Cpd 199, (8E)-8-(4-chloro-benzylidene)-1-(2,5-dichloro-phenyl)-1,4,5,6,7,8-hexahydro-cycloheptapyrazole-3-carboxylic acid piperidin-1-ylamide]	30%	30%	
O=C(NN1CCOCC1)c1nn(-c2cc(Cl)ccc2Cl)c2c1CCCC/C2=C\c1ccc(Cl)cc1 [Cpd 200, (8E)-8-(4-chloro-benzylidene)-1-(2,5-dichloro-phenyl)-1,4,5,6,7,8-hexahydro-cycloheptapyrazole-3-carboxylic acid morpholin-4-ylamide]	15%	6%	
O=C(c1nn(-c2cc(Cl)ccc2Cl)c2c1CCCC/C2=C\c1ccc(Cl)cc1)N1CCOCC1 [Cpd 201, (8E)-[8-(4-chloro-benzylidene)-1-(2,5-dichloro-phenyl)-1,4,5,6,7,8-hexahydro-cycloheptapyrazol-3-yl]-morpholin-4-yl-methanone]	11%	0%	
O=C(N[C@@H](CO)c1ccccc1)c1nn(-c2ccc(Cl)cc2Cl)c2c1CCCC/C2=C\c1ccc(F)cc1 [Cpd 203, (8E)-1-(2,4-dichloro-phenyl)-8-(4-fluoro-benzylidene)-1,4,5,6,7,8-hexahydro-cycloheptapyrazole-3-carboxylic acid [(1R)-2-hydroxy-1-phenyl-ethyl]-amide]	37%		inhibition at 0.2 µM (CB2 receptor; [3]): 30%
O=C(c1n[nH]c2c1CCCC/C2=C\c1ccc(Cl)cc1)N1CCCCC1 [Cpd 223, (8E)-[8-(4-chloro-benzylidene)-1,4,5,6,7,8-hexahydro-cycloheptapyrazol-3-yl]-piperidin-1-yl-methanone]	40%	58%	
C[C@@H](NS(=O)(=O)C=Cc1n[nH]c2c1CCCCC2Cc1cccc(F)c1)c1ccccc1 (stereo partly drawn) [Cpd 235, 2-[8-(3-fluoro-benzyl)-1,4,5,6,7,8-hexahydro-cycloheptapyrazol-3-yl]-ethenesulfonic acid [(1R)-1-phenyl-ethyl]-amide]	0%	41%	
C[C@@H](NS(=O)(=O)/C=C/c1n[nH]c2c1CCCC/C2=C\c1ccc(Cl)cc1)c1ccccc1 [Cpd 236, (2E,8E)-2-[8-(4-chloro-benzylidene)-1,4,5,6,7,8-hexahydro-cycloheptapyrazol-3-yl]-ethenesulfonic acid [(1R)-1-phenyl-ethyl]-amide]	0%	41%	
Cn1nc(C(=O)n2ccnc2)c2c1/C(=C/c1cccc(F)c1)CCCC2 [Cpd 243, (8E)-[8-(3-fluoro-benzylidene)-1-methyl-1,4,5,6,7,8-hexahydro-cycloheptapyrazol-3-yl]-imidazol-1-yl-methanone]	0%	0%	
O=C(N[C@H](CO)Cc1ccc(O)cc1)c1n[nH]c2c1CCCC/C2=C\c1cccc(Cl)c1 [Cpd 246, (8E)-(2S)-8-(3-chloro-benzylidene)-1,4,5,6,7,8-hexahydro-cycloheptapyrazole-3-carboxylic acid [1-hydroxymethyl-2-(4-hydroxy-phenyl)-ethyl]-amide]	0%	15%	
COC(=O)[C@@H](Cc1ccc(F)cc1)NC(=O)c1nn(C)c2c1CCCC/C2=C\c1cccc(F)c1 [Cpd 248, (8E)-(2R)-2-{[8-(3-fluoro-benzylidene)-1-methyl-1,4,5,6,7,8-hexahydro-cycloheptapyrazole-3-carbonyl]-amino}-3-(4-fluoro-phenyl)-propionic acid methyl ester]	89%		IC50 (CB1 receptor; Cannabinoid CB1 Receptor Binding IC50, calculated by linear regression from percent inhibition at various test concentrations): 7 nM; IC50 (CB2 receptor; Cannabinoid CB2 Receptor Binding IC50, calculated by linear regression from percent inhibition at various test concentrations): 3 nM; inhibition at 0.2 µM (CB2 receptor; [3]): 96%
